Measured values from PubChem BioAssay (NCI).
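Growth conditions: 96-well plates. Treatment: test compound, 48 hours, 5 concentrations. Analysis: linear interpolation between bracketing concentrations; unreached endpoints set to highest concentration. At the TGI there is no net growth.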

Experiments:
Experiment in all cases: growth of human tumour cells (NCI), 48 h
[1] = system: HCT-116 colon
[2] = system: HOP-92 NSCLC
[3] = system: MALME-3M melanoma
[4] = system: UACC-62 melanoma
[5] = system: OVCAR-8 ovarian
[6] = system: K-562 leukemia
[7] = system: MOLT-4 leukemia
[8] = system: MDA-MB-231 breast
[9] = system: OVCAR-4 ovarian
[10] = system: OVCAR-3 ovarian
[11] = system: OVCAR-5 ovarian
[12] = system: IGROV1 ovarian
[13] = system: PC-3 prostate
[14] = system: HCC-2998 colon
[15] = system: RXF 393 renal
[16] = system: EKVX NSCLC
[17] = system: RPMI-8226 leukemia
[18] = system: CCRF-CEM leukemia
[19] = system: NCI-H522 lung
[20] = system: HCT-15 colon
[21] = system: SF-268 CNS
[22] = system: KM12 colon
[23] = system: LOX IMVI melanoma
[24] = system: HT29 colon
[25] = system: NCI-H23 lung
[26] = system: NCI/ADR-RES ovarian
[27] = system: M14 melanoma
[28] = system: CAKI-1 renal
[29] = system: DU-145 prostate
[30] = system: NCI-H226 lung
[31] = system: HL-60(TB) leukemia
[32] = system: MDA-MB-435
[33] = system: HS 578T breast
[34] = system: 786-0 renal
[35] = system: SN12C renal
[36] = system: MCF7 breast
[37] = system: UO-31 renal
[38] = system: UACC-257 melanoma
[39] = system: SF-295 CNS
[40] = system: SR leukemia
[41] = system: SW-620 colon
[42] = system: SNB-75 CNS
[43] = system: U251 CNS
[44] = system: SK-MEL-5 melanoma
[45] = system: BT-549 breast
[46] = system: NCI-H460 lung
[47] = system: COLO 205 colon
[48] = system: SNB-19 CNS
[49] = system: T-47D breast
[50] = system: MDA-N
[51] = system: SK-MEL-28 melanoma
[52] = system: A498 renal
[53] = system: HOP-62 NSCLC
[54] = system: SK-OV-3 ovarian
[55] = system: SK-MEL-2 melanoma
[56] = system: A549 NSCLC
[57] = system: ACHN renal
[58] = system: SF-539 CNS
[59] = system: TK-10 renal

NC1=NC(OCC2(CO)CCC2)C=C(NCC2(CO)CCC2)N1 (stereo unspecified) was tested, and the TGI [1] was over 100 µM, the TGI [2] was over 100 µM and the TGI [3] was over 100 µM. The TGI [4] was over 100 µM, the TGI [5] was over 100 µM and the TGI [6] was over 100 µM. For the same compound, the TGI [7] was over 100 µM, the TGI [8] was over 100 µM and the TGI [9] was over 100 µM. It also gave a TGI [10] of over 100 µM, a TGI [11] of over 100 µM and a TGI [12] of over 100 µM. The TGI [13] was over 100 µM, the TGI [14] was over 100 µM and the TGI [15] was over 100 µM. The TGI [16] was over 100 µM, the TGI [17] was over 100 µM and the TGI [18] was over 100 µM. For the same compound, the TGI [19] was over 100 µM, the TGI [20] was over 100 µM and the TGI [21] was over 100 µM. The TGI [22] was over 100 µM, the TGI [23] was over 100 µM and the TGI [24] was over 100 µM. For the same compound, the TGI [25] was over 100 µM, the TGI [26] was over 100 µM and the TGI [27] was over 100 µM. For the same compound, the TGI [28] was over 100 µM, the TGI [29] was over 100 µM and the TGI [30] was over 100 µM. It also gave a TGI [31] of over 100 µM, a TGI [32] of over 100 µM and a TGI [33] of over 100 µM. It also gave a TGI [34] of over 100 µM, a TGI [35] of over 100 µM and a TGI [36] of over 100 µM. It also gave a TGI [37] of over 100 µM, a TGI [38] of over 100 µM and a TGI [39] of over 100 µM. For the same compound, the TGI [40] was over 100 µM, the TGI [41] was over 100 µM and the TGI [42] was over 100 µM. For the same compound, the TGI [43] was over 100 µM, the TGI [44] was over 100 µM and the TGI [45] was over 100 µM. It also gave a TGI [46] of over 100 µM, a TGI [47] of over 100 µM and a TGI [48] of over 100 µM. It also gave a TGI [49] of over 100 µM, a TGI [50] of over 100 µM and a TGI [51] of over 100 µM. For the same compound, the TGI [52] was over 100 µM, the TGI [53] was over 100 µM and the TGI [54] was over 100 µM. It also gave a TGI [55] of over 100 µM and a TGI [56] of over 100 µM.

CCOC(=O)n1cncc1CC(NC(=O)Cc1c(C(=O)C=C(C)C)[nH]c2ccccc12)C(=O)OC (stereo unspecified) showed a TGI [1] of over 100 µM, a TGI [2] of 26.4 µM and a TGI [3] of 32.8 µM. The TGI [4] was 36.3 µM, the TGI [5] was 40.2 µM and the TGI [6] was over 100 µM. The TGI [7] was 47.3 µM, the TGI [8] was 36.1 µM and the TGI [9] was 37.9 µM. It also gave a TGI [10] of 38.9 µM, a TGI [11] of 35 µM and a TGI [12] of 37.5 µM. It also gave a TGI [13] of 33.6 µM, a TGI [14] of 32.2 µM and a TGI [15] of 28.5 µM. For the same compound, the TGI [16] was 33.9 µM, the TGI [17] was over 100 µM and the TGI [18] was 50.9 µM. For the same compound, the TGI [19] was 15.2 µM, the TGI [20] was 59.6 µM and the TGI [57] was 36 µM. For the same compound, the TGI [21] was 37.4 µM, the TGI [22] was 39.1 µM and the TGI [23] was 35.6 µM. For the same compound, the TGI [24] was 66.6 µM, the TGI [25] was 68.2 µM and the TGI [26] was over 100 µM. It also gave a TGI [27] of 33.3 µM, a TGI [28] of 34.8 µM and a TGI [29] of 35.9 µM. For the same compound, the TGI [30] was 41.3 µM, the TGI [31] was 44 µM and the TGI [32] was 37.1 µM. For the same compound, the TGI [58] was 46.2 µM, the TGI [33] was 65.9 µM and the TGI [59] was 34.2 µM. For the same compound, the TGI [34] was 55.5 µM, the TGI [35] was 39.5 µM and the TGI [36] was 84.1 µM. For the same compound, the TGI [37] was 32.3 µM, the TGI [38] was 28.2 µM and the TGI [39] was 35.5 µM. The TGI [40] was 16.1 µM, the TGI [41] was over 100 µM and the TGI [42] was 49.7 µM. It also gave a TGI [43] of 44.9 µM, a TGI [44] of 37.5 µM and a TGI [45] of 37.3 µM. The TGI [46] was 58 µM, the TGI [47] was 41 µM and the TGI [48] was 30.5 µM. It also gave a TGI [49] of 7.46 µM, a TGI [50] of 84.3 µM and a TGI [51] of 32.8 µM. For the same compound, the TGI [52] was 41.1 µM, the TGI [54] was 35.3 µM and the TGI [55] was 34.2 µM. The TGI [56] was 45.3 µM.

CC(C)/C=N\n1c(N)c(C#N)c(C#N)c1C(C)C showed a TGI [1] of over 100 µM, a TGI [2] of 38.3 µM and a TGI [3] of 98.1 µM. The TGI [4] was 34.7 µM, the TGI [5] was 63.7 µM and the TGI [6] was over 100 µM. The TGI [7] was 63.4 µM, the TGI [8] was over 100 µM and the TGI [9] was 84.9 µM. The TGI [10] was 62.1 µM, the TGI [11] was over 100 µM and the TGI [12] was 77.8 µM. For the same compound, the TGI [13] was 47.2 µM, the TGI [14] was 36.4 µM and the TGI [15] was over 100 µM. For the same compound, the TGI [16] was 72.8 µM, the TGI [17] was 75.2 µM and the TGI [18] was over 100 µM. For the same compound, the TGI [19] was over 100 µM, the TGI [20] was over 100 µM and the TGI [57] was 91.1 µM. It also gave a TGI [21] of over 100 µM, a TGI [22] of over 100 µM and a TGI [23] of 97.8 µM. The TGI [24] was over 100 µM, the TGI [25] was 75.4 µM and the TGI [26] was 66.3 µM. For the same compound, the TGI [27] was over 100 µM, the TGI [28] was over 100 µM and the TGI [29] was over 100 µM. For the same compound, the TGI [30] was 64.6 µM, the TGI [31] was over 100 µM and the TGI [32] was 95.1 µM. For the same compound, the TGI [58] was 52.5 µM, the TGI [33] was 95.3 µM and the TGI [59] was over 100 µM. It also gave a TGI [34] of over 100 µM, a TGI [35] of over 100 µM and a TGI [36] of over 100 µM. For the same compound, the TGI [37] was 64.2 µM, the TGI [38] was 50.3 µM and the TGI [39] was 73.7 µM. It also gave a TGI [40] of over 100 µM, a TGI [41] of over 100 µM and a TGI [42] of 40.4 µM. For the same compound, the TGI [43] was over 100 µM, the TGI [44] was 34.1 µM and the TGI [45] was over 100 µM. The TGI [47] was 45.7 µM, the TGI [48] was over 100 µM and the TGI [49] was 66.3 µM. It also gave a TGI [50] of 76.6 µM, a TGI [52] of 69.5 µM and a TGI [53] of over 100 µM. The TGI [54] was over 100 µM, the TGI [55] was 58 µM and the TGI [56] was over 100 µM.
